Laboratory results published in patent publication US12097210B2, “Concomitant administration of glucocorticoid receptor modulators and CYP3A inhibitors” (Corcept Therapeutics, Inc., priority 2017, dated 2024).

Assays:
[1] = Example 3: safety (adverse events, laboratory tests, vital signs, ECGs); format: in vivo, human
Method: (§1) A single dose of ketoconazole was administered on Day −1.

[2] = Example 2: effect of a 400 mg single dose of ketoconazole on PK of an 8-day regimen of 300 mg or 600 mg OD mifepristone after moderate fat breakfast; format: in vivo, human; conditions: for increase in AUC0-24, Day 8 relative to Day 7 / increase in Cmax, Day 8 relative to Day 7: 400 mg ketoconazole on Day 8
Method: This was an open-label study in healthy male subjects. […] The 400 mg single dose of ketoconazole was given to all subjects on day 8.
METHODOLOGY: Twelve subjects were enrolled, six in Cohort 1 and 6 in Cohort 2.
Subjects were discharged on Day 11.
Subjects were discharged on Day 11. Subjects in both cohorts returned to study center on Day 13 for safety monitoring, collection of the 120-hour PK draw, and completion of the Termination Visit procedures, followed by discharge from the study. To the extent possible, any adverse events deemed study drug-related and that were ongoing at the time of discharge from the study were followed-up to resolution or until a determination was made that the unresolved event was stable.
DIAGNOSIS AND MAIN […] FOR INCLUSION: Healthy male volunteers between the ages of 18 to 45 years of age with a body mass index (BMI) ranging between 19 and 32 kg/m2 and a weight of at least 60 kg (132 lbs) were enrolled. Subjects had no clinically significant abnormal findings on the physical examination, ECG, blood pressure, heart rate, medical history, or clinical laboratory results during screening. The QTc interval at screening was less than 450 msec.
DURATION OF TREATMENT: Up to a total of 28 days, including up to 2 weeks screening, dosing on Days 1-8, safety observation, and PK sample collection through Day 13.
Additionally, comparisons were made between the PK results of cohort 1 and 2. Pharmacokinetic parameters Cmax, T½ and total AUC were calculated for plasma concentrations of ketoconazole following the single dose on Day 8. Descriptive statistics (count, mean, median, standard deviation, minimum, maximum, and % coefficient of variation) were provided. Ketoconazole concentrations were listed and summarized. GM means of Cmax and total AUC were compared for the single dose in this study to the combined data of reported 400 mg single doses of ketoconazole of healthy subjects from the literature.

[3] = Example 3: effect of ketoconazole 200 mg twice daily on PK of mifepristone 600 mg once daily and metabolites, with food; format: in vivo, human
Method: as §1
The study was a two period study design.
Concentrations of RU 42633 and RU 42848 were similar on Day 17 and Day 12.

[4] = Example 2: safety (adverse events, physical examinations, laboratory tests); format: in vivo, human
Method: Safety was assessed by spontaneously reported adverse events, physical examinations, and routine clinical laboratory tests. Adverse event data were tabulated. Physical findings and laboratory test results were listed by subject.

[5] = Example 3: cross-study comparison of exposure with historic study of 1200 mg mifepristone OD; format: in vivo, human
clinical = conditions: male, human, in vivo
Method: This study was conducted in accordance with Good Clinical Practice under the guidance of an Institutional Review Board and in accordance with applicable local legal and regulatory requirements.
KORLYM® was supplied in 300 mg tablets for oral administration. Three or four tablets were administered once daily (OD) to provide either the 900 mg or 1200 mg per day dose.
Itraconazole was supplied • in 100 mg capsules for oral administration. Two capsules were administered once daily (OD) to provide the 200 mg per day dose.
All drug administrations were oral and were given after the morning meal.
The inclusion criteria required, among other criteria, that the subjects be healthy male subjects between the ages of 18 and 65, weigh more than 110 pounds, and have a body mass index (BMI) of 18 to 32 kg/m^2. The design included a Screening Period of up to 3 weeks (subjects were screened at a time between days −21 to −1 prior to the first treatment period), three 14-day treatment periods, and a Follow-Up (FU) Period of 14 days for safety observation.
Subjects meeting the inclusion criteria (n=22) were administered drug daily and blood samples were taken on the days indicated below during Periods 1-3 and on day 43 of the follow-up period.
Subjects presented at the Clinical Research Unit (CRU) after an 8-hour overnight fast, then predose PK samples were taken and other evaluations (predose electrocardiograms (ECGs), plasma cortisol and ACTH, serum chemistry tests) were performed. […] On the specific days indicated above, additional blood draws for determining 24-hour PK profiles were performed.
Pharmacokinetic (PK) parameters measured and computed included AUC (area under the concentration−time curve), AUC0-24 (AUC values from time 0 to 24 hours postdose), Cmax (maximum concentration), and Css (average steady-state concentration, calculated as AUC0-24/24).

[6] = Example 1: safety (adverse events, physical examinations, clinical laboratory tests, ECG); format: in vivo, human; conditions: mifepristone 300 mg single dose with ketoconazole for 14 days
Method: Subjects in both cohorts returned to the study center on Day 15 for safety monitoring, and completion of the Termination Visit procedures, followed by discharge from the study. Safety was assessed by spontaneously reported adverse events, physical examinations, and routine clinical laboratory tests. To the extent possible, any adverse events deemed study drug-related and that were ongoing at the time of discharge from the study were followed-up to resolution or until a determination is made that the unresolved event was stable.

[7] = mifepristone 600 mg OD Days 1-17, ketoconazole 200 mg BID Days 13-17
[8] = MIFE 300 mg/d with vs without 400 mg Keto
[9] = MIFE 600 mg/d with vs without 400 mg Keto
[10] = MIFE 600 vs 300 mg/d, no ketoconazole
[11] = MIFE 600 vs 300 mg/d, with 400 mg Keto
[12] = Test: Day 17, 600 mg mifepristone OD + 200 mg Ketoconazole BID, Reference: Day 12, 600 mg mifepristone OD, geometric mean ratio
[13] = Test: Day 17, 600 mg mifepristone OD + 200 mg Ketoconazole BID, Reference: historic study Day 7, 1200 mg mifepristone OD alone, after 34% fat meal

CC#C[C@]1(O)CC[C@H]2[C@@H]3CCC4=CC(=O)CCC4=C3[C@@H](c3ccc(N(C)C)cc3)C[C@@]21C [Mifepristone, 11β-(4-dimethylaminophenyl)-17β-hydroxy-17α-(1-propynyl)-estra-4,9-dien-3-one]
discontinuation due to AEs ([1]; during the mifepristone-only treatment period (moderate hypertension; moderate bilateral rash)): Two subjects discontinued due to AEs | subjects with at least one TEAE ([1]; during the mifepristone/ketoconazole treatment period): 57.1% | subjects with at least one TEAE ([1]; during treatment with mifepristone alone (600 mg OD)): 55.6% | deaths or SAEs [1, 7]: No deaths or SAEs were reported | severe TEAEs [1, 7]: No severe TEAEs were reported | increase in AUC0-24, Day 8 relative to Day 7 ([2]; Cohort 1, 300 mg OD): 25% | increase in Cmax, Day 8 relative to Day 7 ([2]; Cohort 1, 300 mg OD): 20% | increase in AUC0-24, Day 8 relative to Day 7 ([2]; Cohort 2, 600 mg OD): 28% | increase in Cmax, Day 8 relative to Day 7 ([2]; Cohort 2, 600 mg OD): 39% | AUC0-24 greater at 600 mg OD than at 300 mg OD ([2]; Day 8 with 400 mg ketoconazole): 52% | Cmax greater at 600 mg OD than at 300 mg OD ([2]; Day 8 with 400 mg ketoconazole): 65% | half-life greater at 600 mg OD than at 300 mg OD ([2]; Day 8 with 400 mg ketoconazole): 13% | Mean Ratio AUCτ, C1 Day 8/Day 7 [2, 8]: 1.25 | Mean Ratio Cmax, C1 Day 8/Day 7 [2, 8]: 1.19 | Mean Ratio AUCτ, C2 Day 8/Day 7 [2, 9]: 1.28 | Mean Ratio Cmax, C2 Day 8/Day 7 [2, 9]: 1.39 | Mean Ratio AUCτ, Day 7 C2/C1 [2, 10]: 1.48 | Mean Ratio Cmax, Day 7 C2/C1 [2, 10]: 1.42 | Mean Ratio AUCτ, Day 8 C2/C1 [2, 11]: 1.52 | Mean Ratio Cmax, Day 8 C2/C1 [2, 11]: 1.65 | concentrations on Day 17 compared with Day 12 ([3]; 600 mg mifepristone daily with 200 mg ketoconazole twice daily vs mifepristone alone): higher | trough concentrations through the start of ketoconazole administration (Day 13) ([3]; FIG. 1, 600 mg mifepristone OD): increasing day-by-day | difference of time 0 (pre-dose) plasma concentration, Day 17 vs Day 12 ([3]; FIG. 2, before and after inhibition of CYP3A by ketoconazole): ~500 ng/mL | Ratio % Test/Reference, AUC0-24 [3, 12]: 138.01% | Ratio % Test/Reference, Cmax [3, 12]: 127.59% | TEAEs considered possibly or probably related to mifepristone administration ([4]; four subjects in Cohort 2 (600 mg OD)): dizziness, nausea, vomiting, dry mouth, and rash | subjects experiencing at least 1 TEAE ([4]; twelve subjects, mifepristone 300 or 600 mg OD 8 days, ketoconazole 400 mg Day 8): 50% | exposures as percent of those observed following the highest labeled dose of mifepristone (1200 mg daily) ([5]; 600 mg mifepristone OD + 200 mg ketoconazole BID): approximately 85% | Ratio % Test/Ref, AUC0-24 [5, 13]: 87.27% | Ratio % Test/Ref, Cmax [5, 13]: 84.64% | AUC(0-t) (clinical; 900 mg): 59600 ng·h/mL | Cmax, Geometric Means (clinical; 900 mg): 3550 ng/mL | AUC(0-24), Geometric Means (clinical; 1200 mg): 67,700 | Cmax (clinical; 1200 mg): 4360 ng/mL | subjects experiencing at least one treatment emergent adverse event (TEAE) ([6]; 12 subjects): 25% | SAE or AE resulting in discontinuation [6]: No subject experienced an SAE or an AE that resulted in discontinuation from the study | TEAEs considered by the investigator to be related to the drug [6]: No TEAE was considered by the investigator to be related to Mifepristone | changes in ECG parameters [6]: No clinically significant changes in any ECG parameter | changes in laboratory test results [6]: Minimal changes in laboratory test results
